Results as given in ChEMBL document CHEMBL5126613, “Novel CA(1-7)M(2-9) Analogs: Synthesis, Characterization, and Antibacterial Evaluation” (ACS Med Chem Lett, 2022).
Values after ≈ are worked out from the molar mass of the structure shown. Bridge positions count the residues as written; N and C are the ends. Peptide text beside a SMILES is read from it.

Key:
[1] = (§1) Selectivity index, ratio of HC50 for hemolytic activity in sheep RBC assessed as 50% hemolysis incubated for 30 mins by microplate reader method to MIC for antibacterial activity against Staphylococcus aureus ATCC 29213 assessed as reduction in bacterial growth measured for 18 to 20 hrs by microbroth dilution method; format: toxicity; settings: sheep red blood cells (erythrocytes), read-out: Selectivity Index
Bacillus subtilis = assay: Antibacterial activity against Bacillus subtilis ATCC 6051 assessed as reduction in bacterial growth measured for 18 to 20 hrs by microbroth dilution method; format: functional; settings: time 18-20 hrs
Escherichia coli = assay: Antibacterial activity against Escherichia coli ATCC 25922 assessed as reduction in bacterial growth measured for 18 to 20 hrs by microbroth dilution method; format: functional; settings: time 18-20 hrs
[2] = Hemolytic activity in sheep RBC assessed as hemolysis incubated for 30 mins by microplate reader method; format: toxicity, cell-based, Ovis aries, Erythrocyte; settings: sheep red blood cells (erythrocytes), read-out: Activity
Staphylococcus aureus = assay: Antibacterial activity against Staphylococcus aureus ATCC 29213 assessed as reduction in bacterial growth measured for 18 to 20 hrs by microbroth dilution method; format: functional; settings: time 18-20 hrs
[3] = as §1, with “Bacillus subtilis” for “Staphylococcus aureus”, “6051” for “29213”; format: toxicity; settings: sheep red blood cells (erythrocytes), read-out: Selectivity Index
[4] = Hemolytic activity in sheep RBC assessed as 50% hemolysis incubated for 30 mins by microplate reader method; format: toxicity, cell-based, Ovis aries, Erythrocyte; settings: sheep red blood cells (erythrocytes)
[5] = as §1, with “Escherichia coli” for “Staphylococcus aureus”, “25922” for “29213”; format: toxicity; settings: sheep red blood cells (erythrocytes), read-out: Selectivity Index
Pseudomonas aeruginosa = assay: Antibacterial activity against Pseudomonas aeruginosa ATCC 27853 assessed as reduction in bacterial growth measured for 18 to 20 hrs by microbroth dilution method; format: functional; settings: time 18-20 hrs
[6] = as §1, with “Pseudomonas aeruginosa” for “Staphylococcus aureus”, “27853” for “29213”; format: toxicity; settings: sheep red blood cells (erythrocytes), read-out: Selectivity Index
Trypsin [7] = target: T1, Trypsin (Homo sapiens, UniProt P07477+P07478+P35030); assay: Stability of compound assessed as trypsin (unknown origin) mediated compound degradation measured at 4.5 hrs by LCMS analysis; format: ADME, protein assay; settings: read-out: Drug degradation
Trypsin [8] = target: T1, Trypsin; assay: Stability of compound assessed as trypsin (unknown origin)-mediated compound degradation measured at 5 mins by LCMS analysis; format: ADME, protein assay
Trypsin [9] = target: T1, Trypsin; assay: Stability of compound assessed as trypsin (unknown origin) mediated compound degradation by measuring H-O1WO3LFO6-OH level measured at 120 mins by LCMS analysis; format: protein assay
Trypsin [10] = target: T1, Trypsin; assay: Stability of compound assessed as trypsin (unknown origin) mediated compound degradation by measuring H-O1WO3LFO6O7IGAVLO13VL-NH2 level measured at 15 mins by LCMS analysis; format: protein assay
Trypsin [11] = target: T1, Trypsin; assay: Stability of compound assessed as trypsin (unknown origin) mediated compound degradation by measuring H-O1WO3LFO6O7-OH level measured at 270 mins by LCMS analysis; format: protein assay
Trypsin [12] = target: T1, Trypsin; assay: Stability of compound assessed as trypsin (unknown origin) mediated compound degradation by measuring H-WO3LFO6-OH level measured at 15 mins by LCMS analysis; format: protein assay
Trypsin [13] = target: T1, Trypsin; assay: Stability of compound assessed as trypsin (unknown origin) mediated compound degradation by measuring H-O1WO3LFO6-OH level measured at 270 mins by LCMS analysis; format: protein assay
Trypsin [14] = target: T1, Trypsin; assay: Stability of compound assessed as trypsin (unknown origin) mediated compound degradation by measuring H-O1WO3LFO6O7IGAVLO13-OH level measured at 270 mins by LCMS analysis; format: protein assay
Trypsin [15] = target: T1, Trypsin; assay: Stability of compound assessed as trypsin (unknown origin) mediated compound degradation by measuring H-WO3LFO6-OH level measured at 120 mins by LCMS analysis; format: protein assay
Trypsin [16] = target: T1, Trypsin; assay: Stability of compound assessed as trypsin (unknown origin) mediated compound degradation by measuring H-O1WO3LFO6O7-OH level measured at 120 mins by LCMS analysis; format: protein assay
Trypsin [17] = target: T1, Trypsin; assay: Stability of compound assessed as trypsin (unknown origin) mediated compound degradation by measuring H-O1WO3LFO6-OH level measured at 15 mins by LCMS analysis; format: protein assay
Trypsin [18] = target: T1, Trypsin; assay: Stability of compound assessed as trypsin (unknown origin) mediated compound degradation by measuring H-WO3LFO6-OH level measured at 60 mins by LCMS analysis; format: protein assay
Trypsin [19] = target: T1, Trypsin; assay: Stability of compound assessed as trypsin (unknown origin) mediated compound degradation by measuring H-WO3LFO6-OH level measured at 270 mins by LCMS analysis; format: protein assay
Trypsin [20] = target: T1, Trypsin; assay: Stability of compound assessed as trypsin (unknown origin) mediated compound degradation by measuring H-O1WO3LFO6O7-OH level measured at 60 mins by LCMS analysis; format: protein assay
Trypsin [21] = target: T1, Trypsin; assay: Stability of compound assessed as trypsin (unknown origin) mediated compound degradation by measuring H-O1WO3LFO6O7IGAVLO13VL-NH2 level measured at 120 mins by LCMS analysis; format: protein assay
Trypsin [22] = target: T1, Trypsin; assay: Stability of compound assessed as trypsin (unknown origin) mediated compound degradation by measuring H-O1WO3LFO6O7-OH level measured at 15 mins by LCMS analysis; format: protein assay
Trypsin [23] = target: T1, Trypsin; assay: Stability of compound assessed as trypsin (unknown origin) mediated compound degradation by measuring H-O1WO3LFO6O7IGAVLO13VL-NH2 level measured at 270 mins by LCMS analysis; format: protein assay
Trypsin [24] = target: T1, Trypsin; assay: Stability of compound assessed as trypsin (unknown origin) mediated compound degradation by measuring H-O1WO3LFO6O7IGAVLO13-OH level measured at 120 mins by LCMS analysis; format: protein assay
Trypsin [25] = target: T1, Trypsin; assay: Stability of compound assessed as trypsin (unknown origin) mediated compound degradation by measuring H-O1WO3LFO6O7IGAVLO13-OH level measured at 60 mins by LCMS analysis; format: protein assay
Trypsin [26] = target: T1, Trypsin; assay: Stability of compound assessed as trypsin (unknown origin) mediated compound degradation by measuring H-O1WO3LFO6O7IGAVLO13VL-NH2 level measured at 60 mins by LCMS analysis; format: protein assay
Trypsin [27] = target: T1, Trypsin; assay: Stability of compound assessed as trypsin (unknown origin) mediated compound degradation by measuring H-O7IGAVLO13VL-NH2 level measured at 60 mins by LCMS analysis; format: protein assay
Trypsin [28] = target: T1, Trypsin; assay: Stability of compound assessed as trypsin (unknown origin) mediated compound degradation by measuring H-O7IGAVLO13VL-NH2 level measured at 120 mins by LCMS analysis; format: protein assay
Trypsin [29] = target: T1, Trypsin; assay: Stability of compound assessed as trypsin (unknown origin) mediated compound degradation by measuring H-O7IGAVLO13VL-NH2 level measured at 270 mins by LCMS analysis; format: protein assay
Trypsin [30] = target: T1, Trypsin; assay: Stability of compound assessed as trypsin (unknown origin) mediated compound degradation by measuring H-O1WO3LFO6-OH level measured at 60 mins by LCMS analysis; format: protein assay

H-KWRLFKKIGAVLKVL-NH2
selectivity ratio at 30 min [1]: 188 | MIC (Bacillus subtilis): 32 µg/mL | MIC (Escherichia coli): 4 µg/mL | hemolysis at 0.5 h [2]: 10% | MIC (Staphylococcus aureus): 4 µg/mL | selectivity ratio at 30 min [3]: 23 | HC50 at 0.5 h [4]: 750 µg/mL | selectivity ratio at 30 min [5]: 188 | MIC (Pseudomonas aeruginosa): 8 µg/mL | selectivity ratio at 30 min [6]: 94

CC[C@H](C)[C@H](NC(=O)[C@H](CCCN)NC(=O)[C@H](CCCN)NC(=O)[C@H](Cc1ccccc1)NC(=O)[C@H](CC(C)C)NC(=O)[C@H](CCCN)NC(=O)[C@H](Cc1c[nH]c2ccccc12)NC(=O)[C@@H](N)CCCN)C(=O)NCC(=O)N[C@@H](C)C(=O)N[C@H](C(=O)N[C@@H](CC(C)C)C(=O)N[C@@H](CCCN)C(=O)N[C@H](C(=O)N[C@@H](CC(C)C)C(N)=O)C(C)C)C(C)C
selectivity ratio at 30 min [1]: > 125 | metabolised at 4.5 h (Trypsin [7]): 58% | hemolysis at 0.5 h [2]: 10% | selectivity ratio at 30 min [3]: > 31 | HC50 at 0.5 h [4]: > 1000 µg/mL | selectivity ratio at 30 min [5]: > 250 | selectivity ratio at 30 min [6]: > 125

H-KWKLFKRIGAVLKVL-NH2
selectivity ratio at 30 min [1]: > 250 | MIC (Bacillus subtilis): 64 µg/mL | MIC (Escherichia coli): 4 µg/mL | hemolysis at 0.5 h [2]: 10% | MIC (Staphylococcus aureus): 4 µg/mL | selectivity ratio at 30 min [3]: > 16 | HC50 at 0.5 h [4]: > 1000 µg/mL | selectivity ratio at 30 min [5]: > 250 | MIC (Pseudomonas aeruginosa): 8 µg/mL | selectivity ratio at 30 min [6]: > 125

CC[C@H](C)[C@@H]1NC(=O)[C@H](CCCCN)NC(=O)[C@H](CCCCN)NC(=O)[C@H](Cc2ccccc2)NC(=O)[C@H](CC(C)C)NC(=O)[C@H](CCCCN)NC(=O)[C@H](Cc2c[nH]c3ccccc23)NC(=O)[C@H](CCCCN)NC(=O)[C@@H](N)CSSC[C@@H](C(N)=O)NC(=O)[C@H](CC(C)C)NC(=O)[C@H](C(C)C)NC(=O)[C@H](CCCCN)NC(=O)[C@H](CC(C)C)NC(=O)[C@H](C(C)C)NC(=O)[C@H](C)NC(=O)CNC1=O (H-CKWKLFKKIGAVLKVLC-NH2; disulfide 1-17)
selectivity ratio at 30 min [1]: > 250 | MIC (Bacillus subtilis): 8 µg/mL (≈ 4.05 µM) | MIC (Escherichia coli): 2 µg/mL (≈ 1.01 µM) | hemolysis at 0.5 h [2]: 10% | MIC (Staphylococcus aureus): 4 µg/mL (≈ 2.03 µM) | selectivity ratio at 30 min [3]: > 125 | Stability (Trypsin [8]): Stable | HC50 at 0.5 h [4]: > 1000 µg/mL | selectivity ratio at 30 min [5]: > 500 | MIC (Pseudomonas aeruginosa): 16 µg/mL (≈ 8.1 µM) | selectivity ratio at 30 min [6]: > 63

CC[C@H](C)[C@H](NC(=O)[C@H](CCCN)NC(=O)[C@H](CCCN)NC(=O)[C@H](Cc1ccccc1)NC(=O)[C@H](CC(C)C)NC(=O)[C@H](CCCN)NC(=O)[C@H](Cc1c[nH]c2ccccc12)NC(=O)[C@@H](N)CCCN)C(=O)NCC(=O)N[C@H](C)C(=O)N[C@H](C(=O)N[C@@H](CC(C)C)C(=O)N[C@@H](CCCN)C(=O)N[C@H](C(=O)N[C@@H](CC(C)C)C(N)=O)C(C)C)C(C)C
Drug degradation (Trypsin [9]): 8.4% | Drug degradation (Trypsin [10]): 98.1% | Drug degradation (Trypsin [11]): 7.6% | Drug degradation (Trypsin [12]): 0.6% | Drug degradation (Trypsin [13]): 17.3% | Drug degradation (Trypsin [14]): 2.2% | Drug degradation (Trypsin [15]): 5.6% | Drug degradation (Trypsin [16]): 4% | Drug degradation (Trypsin [17]): 0.9% | Drug degradation (Trypsin [18]): 2.8% | Drug degradation (Trypsin [19]): 12.1% | Drug degradation (Trypsin [20]): 2.1% | Drug degradation (Trypsin [21]): 79.4% | Drug degradation (Trypsin [22]): 0.4% | Drug degradation (Trypsin [23]): 58.3% | Drug degradation (Trypsin [24]): 1% | Drug degradation (Trypsin [25]): 0.5% | Drug degradation (Trypsin [26]): 89.4% | Drug degradation (Trypsin [27]): 0.9% | Drug degradation (Trypsin [28]): 1.6% | Drug degradation (Trypsin [29]): 2.5% | Drug degradation (Trypsin [30]): 4.3%

H-KWKLFRKIGAVLKVL-NH2
selectivity ratio at 30 min [1]: 234 | MIC (Bacillus subtilis): 64 µg/mL | MIC (Escherichia coli): 4 µg/mL | hemolysis at 0.5 h [2]: 10% | MIC (Staphylococcus aureus): 4 µg/mL | selectivity ratio at 30 min [3]: 15 | HC50 at 0.5 h [4]: 935 µg/mL | selectivity ratio at 30 min [5]: 234 | MIC (Pseudomonas aeruginosa): 8 µg/mL | selectivity ratio at 30 min [6]: 117
